The results in this text go back to ChEMBL document CHEMBL3286108, “Novel arylsulfonamide derivatives with 5-HT₆/5-HT₇ receptor antagonism targeting behavioral and psychological symptoms of dementia” (J Med Chem, 2014).

Data set [1] has as its target 5-hydroxytryptamine receptor 6 (Homo sapiens, UniProt P50406). The experiment in a line: biochemical.
Data set [2] has as its target hERG (KCNH2) potassium channel (Homo sapiens, UniProt Q12809). Description: in vitro. To be noted: CHO cells expressing human cloned ERG.
Data set [3] concerns the target 5-hydroxytryptamine receptor 2A (Homo sapiens, UniProt P28223). The experiment in a line: biochemical. Type of data set: cell-based, CHO-K1.
For another data set, the target named is D(2) dopamine receptor (Homo sapiens, UniProt P14416). The experiment in a line: biochemical.
Sequence of D(2) dopamine receptor (P14416 whole entry): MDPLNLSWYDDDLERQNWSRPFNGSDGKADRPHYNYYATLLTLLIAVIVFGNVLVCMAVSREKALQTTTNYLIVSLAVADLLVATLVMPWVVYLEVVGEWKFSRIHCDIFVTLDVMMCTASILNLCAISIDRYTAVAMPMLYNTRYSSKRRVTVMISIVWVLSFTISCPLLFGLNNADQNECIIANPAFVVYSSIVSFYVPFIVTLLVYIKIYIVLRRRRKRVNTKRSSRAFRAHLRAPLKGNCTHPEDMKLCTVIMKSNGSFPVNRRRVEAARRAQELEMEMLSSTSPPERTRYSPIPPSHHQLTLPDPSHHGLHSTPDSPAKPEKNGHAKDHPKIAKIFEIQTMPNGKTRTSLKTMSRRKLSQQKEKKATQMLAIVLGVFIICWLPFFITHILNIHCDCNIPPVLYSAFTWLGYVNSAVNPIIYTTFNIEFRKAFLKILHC
Data set [4] concerns the target 5-hydroxytryptamine receptor 7 (Homo sapiens, UniProt P34969). The experiment in a line: biochemical. Type of data set: cell-based, CHO-K1.
Data set [5] concerns the target T1, Muscarinic acetylcholine receptor M1 (Homo sapiens) (UniProt P11229).
T1 sequence (whole entry): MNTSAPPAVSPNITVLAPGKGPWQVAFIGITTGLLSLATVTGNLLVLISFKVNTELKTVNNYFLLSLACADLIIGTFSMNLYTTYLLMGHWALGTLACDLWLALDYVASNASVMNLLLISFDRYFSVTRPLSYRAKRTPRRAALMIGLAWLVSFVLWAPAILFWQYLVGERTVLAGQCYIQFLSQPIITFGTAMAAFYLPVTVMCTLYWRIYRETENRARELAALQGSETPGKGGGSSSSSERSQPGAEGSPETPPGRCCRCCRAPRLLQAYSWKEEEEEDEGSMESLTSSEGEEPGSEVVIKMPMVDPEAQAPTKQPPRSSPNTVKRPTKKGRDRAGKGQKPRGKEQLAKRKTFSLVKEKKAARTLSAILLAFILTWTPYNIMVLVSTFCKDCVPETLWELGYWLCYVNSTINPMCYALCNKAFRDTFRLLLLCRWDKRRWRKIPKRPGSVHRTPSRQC
The experiment in a line: Displacement of [3H]pirenzepine from human recombinant M1 receptor expressed in CHO cells at 1 uM. Type of data set: cell-based. For orientation: Displacement assays read how much labelled ligand stays bound in the presence of the test substance.

Sequence of 5-hydroxytryptamine receptor 6 (P50406 whole entry): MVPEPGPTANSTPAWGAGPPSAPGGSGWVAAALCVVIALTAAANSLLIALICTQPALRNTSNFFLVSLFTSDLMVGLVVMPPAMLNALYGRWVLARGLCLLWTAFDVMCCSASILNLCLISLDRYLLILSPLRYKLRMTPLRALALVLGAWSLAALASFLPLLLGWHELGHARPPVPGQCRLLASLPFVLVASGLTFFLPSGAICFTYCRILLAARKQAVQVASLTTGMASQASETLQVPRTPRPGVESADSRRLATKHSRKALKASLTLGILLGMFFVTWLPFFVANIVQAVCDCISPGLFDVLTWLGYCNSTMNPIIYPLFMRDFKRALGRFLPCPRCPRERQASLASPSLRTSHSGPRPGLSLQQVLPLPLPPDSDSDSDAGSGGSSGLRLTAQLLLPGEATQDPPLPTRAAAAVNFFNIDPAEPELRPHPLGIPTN
Sequence of 5-hydroxytryptamine receptor 7 (P34969 whole entry): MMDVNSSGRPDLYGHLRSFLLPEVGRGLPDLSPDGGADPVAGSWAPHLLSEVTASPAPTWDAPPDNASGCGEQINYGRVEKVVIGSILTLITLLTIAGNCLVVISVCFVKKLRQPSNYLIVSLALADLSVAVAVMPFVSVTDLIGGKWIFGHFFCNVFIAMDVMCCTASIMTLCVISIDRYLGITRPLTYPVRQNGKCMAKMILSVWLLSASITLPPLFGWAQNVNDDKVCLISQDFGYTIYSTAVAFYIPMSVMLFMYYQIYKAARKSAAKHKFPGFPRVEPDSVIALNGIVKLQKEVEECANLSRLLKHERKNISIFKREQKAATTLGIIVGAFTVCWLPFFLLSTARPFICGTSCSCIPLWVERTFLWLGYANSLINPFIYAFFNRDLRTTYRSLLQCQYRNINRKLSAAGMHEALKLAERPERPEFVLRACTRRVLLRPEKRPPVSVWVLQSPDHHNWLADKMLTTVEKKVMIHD
Sequence of 5-hydroxytryptamine receptor 2A (P28223 whole entry): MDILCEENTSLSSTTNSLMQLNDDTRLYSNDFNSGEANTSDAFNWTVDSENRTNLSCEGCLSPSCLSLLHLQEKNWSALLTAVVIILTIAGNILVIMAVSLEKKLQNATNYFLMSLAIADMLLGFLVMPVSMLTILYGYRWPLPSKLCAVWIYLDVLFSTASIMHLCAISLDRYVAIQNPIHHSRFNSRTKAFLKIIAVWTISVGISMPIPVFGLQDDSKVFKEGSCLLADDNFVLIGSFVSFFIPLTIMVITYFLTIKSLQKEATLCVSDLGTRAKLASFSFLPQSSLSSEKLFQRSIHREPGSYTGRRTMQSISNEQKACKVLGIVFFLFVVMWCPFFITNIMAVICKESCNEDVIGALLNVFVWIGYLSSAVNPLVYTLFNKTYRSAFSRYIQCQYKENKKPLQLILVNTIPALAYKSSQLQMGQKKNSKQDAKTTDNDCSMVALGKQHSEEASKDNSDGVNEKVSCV
Sequence of hERG (KCNH2) potassium channel (Q12809 whole entry): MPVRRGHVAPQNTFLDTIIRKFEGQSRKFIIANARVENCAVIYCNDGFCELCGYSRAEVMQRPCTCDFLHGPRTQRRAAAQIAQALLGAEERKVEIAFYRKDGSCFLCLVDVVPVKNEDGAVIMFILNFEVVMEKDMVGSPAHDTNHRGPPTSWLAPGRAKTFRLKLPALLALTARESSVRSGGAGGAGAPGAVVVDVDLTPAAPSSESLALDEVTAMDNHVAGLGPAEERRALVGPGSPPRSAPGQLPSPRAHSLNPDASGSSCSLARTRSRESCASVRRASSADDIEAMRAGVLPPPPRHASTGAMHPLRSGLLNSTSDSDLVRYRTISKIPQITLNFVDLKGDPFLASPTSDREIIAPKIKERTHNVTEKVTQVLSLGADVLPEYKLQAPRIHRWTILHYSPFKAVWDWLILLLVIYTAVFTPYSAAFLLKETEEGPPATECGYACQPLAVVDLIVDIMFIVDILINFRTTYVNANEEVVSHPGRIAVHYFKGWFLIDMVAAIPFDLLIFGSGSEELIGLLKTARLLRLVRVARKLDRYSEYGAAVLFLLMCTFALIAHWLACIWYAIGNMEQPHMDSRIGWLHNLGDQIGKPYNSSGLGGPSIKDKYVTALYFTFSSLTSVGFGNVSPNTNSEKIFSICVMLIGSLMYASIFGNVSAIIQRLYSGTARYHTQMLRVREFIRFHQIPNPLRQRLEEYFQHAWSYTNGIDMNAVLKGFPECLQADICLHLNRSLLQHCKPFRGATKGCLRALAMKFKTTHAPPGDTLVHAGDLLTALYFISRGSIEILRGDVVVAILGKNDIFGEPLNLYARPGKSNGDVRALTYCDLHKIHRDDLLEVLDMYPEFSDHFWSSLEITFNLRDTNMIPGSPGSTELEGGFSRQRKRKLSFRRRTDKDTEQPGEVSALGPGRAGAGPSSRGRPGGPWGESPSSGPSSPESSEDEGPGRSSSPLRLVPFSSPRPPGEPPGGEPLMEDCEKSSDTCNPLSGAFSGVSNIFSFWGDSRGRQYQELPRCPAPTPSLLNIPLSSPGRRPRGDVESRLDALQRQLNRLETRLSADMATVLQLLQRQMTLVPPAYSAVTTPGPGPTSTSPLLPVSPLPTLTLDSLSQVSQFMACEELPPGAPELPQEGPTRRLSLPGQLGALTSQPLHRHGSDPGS

With `Cc1c(S(=O)(=O)NCCCCN2CCN(c3nsc4ccccc34)CC2)sc2ccc(F)cc12`, the Ki (in general, the dissociation constant of the complex between target and ligand, obtained from inhibition or displacement) in data set [1] stood at 54 nM; in data set [3], 6.5 nM; on D(2) dopamine receptor, 44 nM; in data set [4], 4.6 nM. In addition, in data set [2], the inhibition (commonly the drop in the measured response relative to a control, in per cent) at 1 µM was determined as 5%. The inhibition in data set [5] came out at 10%.

For `O=S(=O)(NCCN1CCC(c2noc3cc(F)ccc23)CC1)c1ccc2ccccc2c1`, the inhibition constant (Ki) in data set [1] is 133 nM; in data set [3], 1.8 nM; at D(2) dopamine receptor, 5.2 nM; in data set [4], 0.4 nM. Besides, the inhibition at 1 µM in data set [2] was 21%. Also, in data set [5], the inhibition is -2%.

Consider `O=S(=O)(NCCCN1CCN(c2noc3ccccc23)CC1)c1cc2ccccc2s1`, for which the Ki in data set [1] came to 35 nM; in data set [3], 410 nM; at D(2) dopamine receptor, 15 nM; in data set [4] it was 150 nM. Further, in data set [2], the inhibition at 1 µM is 21%. For the same compound, in data set [5], the inhibition was determined as 14%.

Turning to `O=S(=O)(NCCCN1CCN(c2nsc3ccccc23)CC1)c1ccc2ccccc2c1`, the inhibition constant Ki came out at 40 nM in data set [1], 10 nM in data set [3], 2.2 nM at D(2) dopamine receptor and 1.5 nM in data set [4]. Besides, the inhibition at 1 µM in data set [2] amounted to 13%. Besides, the inhibition in data set [5] was 0%.

For `O=S(=O)(NCCCN1CCC(c2noc3cc(F)ccc23)CC1)c1cc2ccc(Cl)cc2s1`, the Ki in data set [1] is 44 nM; in data set [3], 2.6 nM; at D(2) dopamine receptor it was 27 nM; in data set [4], 34 nM. Moreover, the inhibition at 1 µM in data set [2] was 20%. Also, the inhibition in data set [5] was -8%.

As for `Cc1cccc(S(=O)(=O)NCCCCN2CCC(c3noc4cc(F)ccc34)CC2)c1`, the Ki in data set [1] is 140 nM; in data set [3], 2.1 nM; at D(2) dopamine receptor, 17 nM; in data set [4], 1.5 nM. In addition, the inhibition at 1 µM in data set [2] came to 57%. Further, the inhibition in data set [5] was 11%.

For the compound `O=S(=O)(NCCCN1CCC(c2noc3cc(F)ccc23)CC1)c1cccc2ccccc12`, the Ki was found to be 83 nM in data set [1], 1.7 nM in data set [3], 4 nM on D(2) dopamine receptor and 0.5 nM in data set [4]. Also, in data set [2], the inhibition at 1 µM is 27%. Moreover, the inhibition in data set [5] is -9%.

Regarding `O=S(=O)(NCCCCN1CCN(c2noc3ccccc23)CC1)c1cc2ccc(Cl)cc2s1`, the Ki in data set [1] amounted to 46 nM; in data set [3], 11 nM; at D(2) dopamine receptor, 54 nM; in data set [4], 5.1 nM. For the same compound, the inhibition at 1 µM in data set [2] was determined as 15%. Further, in data set [5], the inhibition is -1%.

For the compound `O=S(=O)(NCCCCN1CCN(c2noc3ccccc23)CC1)c1ccc(F)c(Cl)c1`, the Ki in data set [1] was found to be 27 nM; in data set [3] it was 17 nM; at D(2) dopamine receptor it was 77 nM; in data set [4] it was 0.1 nM. The inhibition at 1 µM in data set [2] worked out at 45%. Moreover, the inhibition in data set [5] was 6%.

For the compound `O=S(=O)(NCCCN1CCN(c2noc3ccccc23)CC1)c1cccc2scnc12`, the inhibitory constant (Ki) in data set [1] was > 10000 nM; in data set [3], 3300 nM; at D(2) dopamine receptor, > 10000 nM; in data set [4], 41 nM. For the same compound, in data set [2], the inhibition at 1 µM came out at 17%. The inhibition in data set [5] is -2%.

Consider `O=S(=O)(NCCCCN1CCN(c2nsc3ccccc23)CC1)c1cccc2scnc12`, for which the Ki in data set [1] was determined as 120 nM; in data set [3], 7.5 nM; at D(2) dopamine receptor it was 16 nM; in data set [4] it was 3.4 nM. Moreover, in data set [2], the inhibition at 1 µM amounted to 34%. The inhibition in data set [5] amounted to 0%.

On to `O=S(=O)(NCCCCN1CCC(c2noc3cc(F)ccc23)CC1)c1ccc(F)c(Cl)c1`, for which the Ki in data set [1] came to 48 nM; in data set [3], 9 nM; on D(2) dopamine receptor, 26 nM; in data set [4], 4.4 nM. The inhibition at 1 µM in data set [2] worked out at 90%. The inhibition in data set [5] was 18%.

Consider `O=S(=O)(NCCCN1CCN(c2noc3ccccc23)CC1)c1ccc(Cl)c(Cl)c1`, for which the inhibitory constant (Ki) in data set [1] was 1100 nM; in data set [3] it was 290 nM; at D(2) dopamine receptor it was > 10000 nM; in data set [4], 34 nM. The inhibition at 1 µM in data set [2] came out at 27%. The inhibition in data set [5] turned out to be 0%.

With `Cc1cccc(S(=O)(=O)NCCCCN2CCN(c3noc4ccccc34)CC2)c1`, the Ki in data set [1] was 87 nM; in data set [3] it was 26 nM; at D(2) dopamine receptor, 44 nM; in data set [4] it was 1.1 nM. Moreover, in data set [2], the inhibition at 1 µM was found to be 27%. The inhibition in data set [5] was -3%.

For `O=S(=O)(NCCCCN1CCN(c2noc3ccccc23)CC1)c1cc2ccccc2s1`, the Ki in data set [1] was found to be 1100 nM; in data set [3], 190 nM; on D(2) dopamine receptor, 1300 nM; in data set [4], 180 nM. In addition, the inhibition at 1 µM in data set [2] was 14%. Also, in data set [5], the inhibition turned out to be 2%.

Regarding `O=S(=O)(NCCCCN1CCC(c2noc3cc(F)ccc23)CC1)c1ccc(Cl)c(Cl)c1`, the Ki turned out to be 26 nM in data set [1], 4.9 nM in data set [3], 15 nM on D(2) dopamine receptor and 5.1 nM in data set [4]. In data set [2], the inhibition at 1 µM turned out to be 82%. Besides, the inhibition in data set [5] came to 27%.

Consider `O=S(=O)(NCCCCN1CCN(c2nsc3ccccc23)CC1)c1cc2ccccc2s1`, for which the Ki in data set [1] is 33 nM; in data set [3], 6 nM; on D(2) dopamine receptor it was 15 nM; in data set [4], 9.9 nM. Also, in data set [2], the inhibition at 1 µM stood at 11%. Besides, in data set [5], the inhibition came out at 0%.

Consider `O=S(=O)(NCCCCN1CCN(c2nsc3ccccc23)CC1)c1ccc(Cl)c(Cl)c1`, for which the Ki in data set [1] was found to be 71 nM; in data set [3], 12 nM; on D(2) dopamine receptor, 27 nM; in data set [4] it was 6.9 nM. In addition, the inhibition at 1 µM in data set [2] stood at 45%. In addition, the inhibition in data set [5] came out at 7%.

In the case of `O=S(=O)(NCCCN1CCC(c2noc3cc(F)ccc23)CC1)c1cnc2ccccn12`, the Ki in data set [1] is 100 nM; in data set [3], 6.5 nM; at D(2) dopamine receptor, 15 nM; in data set [4], 3.2 nM. Also, the inhibition at 1 µM in data set [2] was found to be 28%. Besides, the inhibition in data set [5] is -4%.

With `O=S(=O)(NCCCCN1CCC(c2noc3cc(F)ccc23)CC1)c1cnc2ccccn12`, the Ki in data set [1] was 100 nM; in data set [3], 9.5 nM; on D(2) dopamine receptor, > 1000 nM; in data set [4], 14 nM. For the same compound, in data set [2], the inhibition at 1 µM was 47%. In data set [5], the inhibition came out at 37%.

In the case of `O=S(=O)(NCCCN1CCC(c2noc3cc(F)ccc23)CC1)c1csc2ccccc12`, the Ki in data set [1] worked out at 13 nM; in data set [3] it was 1.6 nM; at D(2) dopamine receptor it was 36 nM; in data set [4] it was 0.9 nM. Also, the inhibition at 1 µM in data set [2] came to 25%. Moreover, the inhibition in data set [5] was -2%.

Consider `O=S(=O)(NCCCCN1CCN(c2nsc3ccccc23)CC1)c1cccs1`, for which the Ki in data set [1] stood at 42 nM; in data set [3], 5.5 nM; at D(2) dopamine receptor, 3.2 nM; in data set [4] it was 3.2 nM. In data set [2], the inhibition at 1 µM was 40%. Also, the inhibition in data set [5] worked out at 1%.

Take `O=S(=O)(NCCCCN1CCC(c2noc3cc(F)ccc23)CC1)c1ccc(OC(F)(F)F)cc1`: the Ki was 23 nM in data set [1], 3.6 nM in data set [3], 64 nM at D(2) dopamine receptor and 15 nM in data set [4]. Also, the inhibition at 1 µM in data set [2] was 73%. For the same compound, in data set [5], the inhibition is -6%.

`O=S(=O)(NCCCN1CCN(c2noc3ccccc23)CC1)c1ccc(F)c(Cl)c1`: the Ki was 330 nM in data set [1], 98 nM in data set [3], > 10000 nM at D(2) dopamine receptor and 9.9 nM in data set [4]. Also, in data set [2], the inhibition at 1 µM worked out at 33%. Besides, the inhibition in data set [5] turned out to be 2%.

For `O=S(=O)(NCCCCN1CCC(c2noc3cc(F)ccc23)CC1)c1cccs1`, the Ki is 130 nM in data set [1], 9.5 nM in data set [3], > 1000 nM at D(2) dopamine receptor and 6.3 nM in data set [4]. Besides, in data set [2], the inhibition at 1 µM turned out to be 53%. Further, the inhibition in data set [5] was determined as 24%.

For `Cc1cccc(S(=O)(=O)NCCCCN2CCN(c3nsc4ccccc34)CC2)c1`, the inhibition constant (Ki) was 100 nM in data set [1], 0.4 nM in data set [3], 8.7 nM on D(2) dopamine receptor and 1.6 nM in data set [4]. Also, in data set [2], the inhibition at 1 µM amounted to 17%. For the same compound, in data set [5], the inhibition was -4%.

For `O=S(=O)(NCCCN1CCN(c2noc3ccccc23)CC1)c1cc2ccc(Cl)cc2s1`, the inhibitory constant (Ki) in data set [1] stood at 560 nM; in data set [3] it was 63 nM; at D(2) dopamine receptor it was 30 nM; in data set [4], 900 nM. The inhibition at 1 µM in data set [2] was determined as 7%. Also, the inhibition in data set [5] was 6%.

For the compound `O=S(=O)(NCCCCN1CCN(c2nsc3ccccc23)CC1)c1cc2ccc(Cl)cc2s1`, the Ki in data set [1] was 45 nM; in data set [3], 6.5 nM; on D(2) dopamine receptor, 45 nM; in data set [4] it was 9 nM. Further, the inhibition at 1 µM in data set [2] came out at 5%. Moreover, the inhibition in data set [5] came to 2%.

In the case of `Cc1c(S(=O)(=O)NCCCN2CCC(c3noc4cc(F)ccc34)CC2)sc2ccc(F)cc12`, the Ki in data set [1] was determined as 25 nM; in data set [3], 2.3 nM; on D(2) dopamine receptor, 8 nM; in data set [4], 10 nM. Moreover, the inhibition at 1 µM in data set [2] came to 43%. Besides, the inhibition in data set [5] was 2%.
